Values quoted from earlier work in patent US20050272714A1, “Use of targeted oxidative therapeutic formulation in treatment of diabetes and obesity” (priority 2004, published 2005).

Experiments:
[1] = system: peroxide-sensitive E. coli; details: infused into the blood of infected rabbits
E. coli = details: increasing concentration ex-vivo in rabbit or human blood

OO [hydrogen peroxide]
bactericidal effect [1]: no bactericidal effect | direct bactericidal activity (E. coli): no evidence of direct bactericidal activity
